According to patent US4261978A, “Treatment and prophylaxis of swine dysentery” (Takeda Chemical Industries, Ltd., priority 1978, dated 1981):
In brackets after ≈: the same amount, converted by molar mass. Where two headings read alike, the source gives them in different places.

Assays:
Treponema hyodysenteriae [1] = experiment: Minimum inhibitory concentration against Treponema hyodysenteriae (agar dilution); format: cell-based; conditions: 10^6 CFU/ml. loopful, 37° C., 2 days; for MIC: Brachyspira hyodysenteriae, 48 h
Procedure: (1)Strains: These strains belong to Treponema hyodysenteriae isolated fro
the bloody mucous faeces of dysenteric pigs; MK 1, MK 2 and MK 4 were
obtained in Kyushu District of Japan while OX 1 was obtained in Okinawa,
(2)Antimicrobial potency assay: Agar Dilution Method
(3) Inoculum size: a loopful of 10^6 CFU/ml.
(4)Cultural conditions: Gas Pak (BBL) method, 37° C., 2 days

[2] = Acute oral toxicity (LD50); format: in vivo, mouse; conditions: for LD50: mouse, oral
Excerpt: (C) Carriomycin is extremely low in toxicity to animals.

[3] = Absorption from the digestive tract and residue in the animal body; conditions: in words
Treponema hyodysenteriae [4] = experiment: Therapeutic efficacy of medicated feed in pigs experimentally infected with swine dysentery; format: in vivo, pigs (SPF LW)
Procedure: A premix containing 10% of carriomycin monosodium salt crystals as diluted with finely milled soybean meal was added to a feedstuff and pigs were allowed to take the feed as libitum. The feed was the proprietary pig starter mentioned in Example 2 without added antibiotics. The pigs were SPF LW and used in groups of 4 animals (2 male and 2 female.)
The pigs were infected as follows. Thus, Treponema hyodysenteriae was anaerobically grown on a 5% horse blood agar plate and the resultant culture was homogenized and admixed with 3% mucin-phosphate buffer. The mixture was directly administered into the stomach of each SPF pig. From each of the pigs showing typical symptoms of swine dysentery, the colon content and mucous membrane were taken and diluted two-fold with 3% mucin-phosphate buffer to obtain a final infective material. An 80 ml. portion of this preparation was directly infused into the stomach of each test pig, which was then put on the unmedicated feed for the initial six days. Beginning with the 7th day, each pig was put on the feed medicated with one of predetermined concentrations of the test drug and was reared for a total of 28 days. Tests were performed for three groups of animals dosed with 0 ppm. 15 ppm. and 150 ppm., respectively, of carriomycin.

**Q.** Which results are given for `COC1CCC(OC2C(C)C(CC3CC(OC)C(C)C4(O3)OC(C)(C3CCC(C5CCC(C6OC(C)(O)C(C)CC6C)O5)O3)C(OC)C4C)OC(O)(C(C)C(=O)O)C2C)OC1C` (stereo not drawn) [Carriomycin, carriomycin]?
**A.** Minimum inhibitory concentration (MIC) (Treponema hyodysenteriae [1]; strain MK 1): 0.1 µg/mL (≈ 0.113 µM); Minimum inhibitory concentration (MIC) (Treponema hyodysenteriae [1]; strain MK 2): 0.1 µg/mL (≈ 0.113 µM); Minimum inhibitory concentration (MIC) (Treponema hyodysenteriae [1]; strain MK 4): 0.1 µg/mL (≈ 0.113 µM); Minimum inhibitory concentration (MIC) (Treponema hyodysenteriae [1]; strain OX 1): 0.1 µg/mL (≈ 0.113 µM); toxicity to animals ([2]; in words): extremely low; LD50 [2]: about 2,000 mg./kg.; absorption from the digestive tract [3]: sparingly absorbed; residue in the animal body [3]: substantially no residue; Mean body weight at end of test (Treponema hyodysenteriae [4]; group B, 15 ppm. in feed): 29.1 kg./head; Mean feed conversion ratio (Treponema hyodysenteriae [4]; group B, 15 ppm. in feed): 2.5; Mean feed intake (Treponema hyodysenteriae [4]; group B, 15 ppm. in feed): 36.5 kg./head; Mean number of days with bloody mucous faeces (Treponema hyodysenteriae [4]; group B, 15 ppm. in feed): 0.5 days/head; Mean number of days with diarrhea (Treponema hyodysenteriae [4]; group B, 15 ppm. in feed): 3.0 days/head; Mean weight gain (Treponema hyodysenteriae [4]; group B, 15 ppm. in feed): 14.6 kg./head; Mean body weight at end of test (Treponema hyodysenteriae [4]; group C, 150 ppm. in feed): 31.7 kg./head; Mean feed conversion ratio (Treponema hyodysenteriae [4]; group C, 150 ppm. in feed): 2.3; Mean feed intake (Treponema hyodysenteriae [4]; group C, 150 ppm. in feed): 37.3 kg./head; Mean number of days with bloody mucous faeces (Treponema hyodysenteriae [4]; group C, 150 ppm. in feed): 0.1 days/head; Mean number of days with diarrhea (Treponema hyodysenteriae [4]; group C, 150 ppm. in feed): 1.5 days/head; Mean weight gain (Treponema hyodysenteriae [4]; group C, 150 ppm. in feed): 16.2 kg./head; body weight gain (Treponema hyodysenteriae [4]; in words, from Table 2): considerable increases; feed conversion ratio, number of days with diarrhea and number of days with bloody mucous faeces (Treponema hyodysenteriae [4]; in words, from Table 2): considerable improvements

**Q.** What does the source list for `CC[C@@]1([C@@H]2O[C@@H]([C@H]3O[C@@](O)(CO)[C@H](C)C[C@@H]3C)C[C@@H]2C)CC[C@H]([C@]2(C)CC[C@]3(C[C@H](O)[C@@H](C)[C@@H]([C@@H](C)[C@@H](OC)[C@H](C)C(=O)O)O3)O2)O1` [Monensin]?
**A.** MIC (Treponema hyodysenteriae [1]; strain MK 1): 1 µg/mL (≈ 1.49 µM); MIC (Treponema hyodysenteriae [1]; strain MK 2): 1 µg/mL (≈ 1.49 µM); MIC (Treponema hyodysenteriae [1]; strain MK 4): 1 µg/mL (≈ 1.49 µM); MIC (Treponema hyodysenteriae [1]; strain OX 1): 1 µg/mL (≈ 1.49 µM)

**Q.** Which results are given for `CC[C@@H](C(=O)[C@@H](C)[C@@H](O)[C@H](C)[C@@H]1O[C@@H]([C@@H](CC)C(=O)O)CC[C@@H]1C)[C@H]1O[C@]2(C=C[C@@H](O)[C@]3(CC[C@@](C)([C@H]4CC[C@](O)(CC)[C@H](C)O4)O3)O2)[C@H](C)C[C@@H]1C` [Salinomycin, salinomycin]?
**A.** MIC (Treponema hyodysenteriae [1]; strain MK 1): 1 µg/mL (≈ 1.33 µM); MIC (Treponema hyodysenteriae [1]; strain MK 2): 1 µg/mL (≈ 1.33 µM); MIC (Treponema hyodysenteriae [1]; strain MK 4): 0.1 µg/mL (≈ 0.133 µM); MIC (Treponema hyodysenteriae [1]; strain OX 1): 1 µg/mL (≈ 1.33 µM); LD50 ([2]; in vivo, read-out: LD50): 50 mg/kg

**Q.** With `CCC(C(=O)C(C)C(O)C(C)CCc1ccc(C)c(O)c1C(=O)O)C1OC(CC)(C2CCC(O)(CC)C(C)O2)CC1C` (stereo not drawn) [Lasalocid A] as the molecule, how does the MIC (Treponema hyodysenteriae [1]; strain MK 1) read?
**A.** The MIC was 10 µg/mL (≈ 16.9 µM).

**Q.** And the MIC (Treponema hyodysenteriae [1]; strain MK 2)?
**A.** Its MIC is 10 µg/mL (≈ 16.9 µM).

**Q.** And the MIC (Treponema hyodysenteriae [1]; strain MK 4)?
**A.** Its MIC is 10 µg/mL (≈ 16.9 µM).

**Q.** What about the MIC (Treponema hyodysenteriae [1]; strain OX 1) of the same molecule?
**A.** Its MIC is 10 µg/mL (≈ 16.9 µM).

**Q.** And the LD50 ([2]; in vivo, read-out: LD50)?
**A.** Its LD50 is 146 mg/kg.
